From PMC5779714, “Metallochaperone UreG serves as a new target for design of urease inhibitor: A novel strategy for development of antimicrobials” (PLoS Biology, 2018)

How the values were obtained:
H. pylori = assay: Growth of H. pylori in neutral and acidic brucella broth (OD600); assay type: cell-based; details: for OD600(pH5): acidic brucella broth pH 5.0, 24 h, control 0.93
H. pylori urease = H. pylori urease (Helicobacter pylori, UniProt P14916+P69996); assay: cell-based; assay type: cell-based; details: read-out: inhibition of urease activity in H. pylori cells
Sequence of H. pylori urease (P14916 whole entry, looked up): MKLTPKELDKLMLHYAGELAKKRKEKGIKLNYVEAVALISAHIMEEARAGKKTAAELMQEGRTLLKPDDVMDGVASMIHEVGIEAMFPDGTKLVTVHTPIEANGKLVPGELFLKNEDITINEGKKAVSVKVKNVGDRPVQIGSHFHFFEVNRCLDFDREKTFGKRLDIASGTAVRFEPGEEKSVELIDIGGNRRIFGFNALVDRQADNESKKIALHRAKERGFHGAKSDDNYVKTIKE
Sequence of H. pylori urease (P69996 whole entry, looked up): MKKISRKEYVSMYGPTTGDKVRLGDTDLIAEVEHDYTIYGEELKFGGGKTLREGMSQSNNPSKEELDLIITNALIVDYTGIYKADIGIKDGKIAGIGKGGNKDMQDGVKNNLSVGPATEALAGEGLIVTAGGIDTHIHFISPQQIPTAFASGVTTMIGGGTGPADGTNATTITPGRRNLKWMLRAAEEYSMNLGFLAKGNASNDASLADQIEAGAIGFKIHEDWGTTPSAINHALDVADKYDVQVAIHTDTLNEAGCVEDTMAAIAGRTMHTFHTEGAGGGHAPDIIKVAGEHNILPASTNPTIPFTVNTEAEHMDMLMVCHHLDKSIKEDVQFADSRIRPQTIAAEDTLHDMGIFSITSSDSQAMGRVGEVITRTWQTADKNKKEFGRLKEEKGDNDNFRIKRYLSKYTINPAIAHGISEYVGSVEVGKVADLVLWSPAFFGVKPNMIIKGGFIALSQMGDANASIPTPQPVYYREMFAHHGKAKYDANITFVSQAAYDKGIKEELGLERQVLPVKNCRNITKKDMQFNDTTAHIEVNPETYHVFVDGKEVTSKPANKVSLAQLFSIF

UreGΔNKXD = UreGΔNKXD (Helicobacter pylori, UniProt Q09066, D148A/K146A/N145A); assay: Fluorescence-quenching titration of mutant UreGΔNKXD; assay type: binding, H. pylori
Sequence of UreGΔNKXD (Q09066 whole entry N145A/K146A/D148A): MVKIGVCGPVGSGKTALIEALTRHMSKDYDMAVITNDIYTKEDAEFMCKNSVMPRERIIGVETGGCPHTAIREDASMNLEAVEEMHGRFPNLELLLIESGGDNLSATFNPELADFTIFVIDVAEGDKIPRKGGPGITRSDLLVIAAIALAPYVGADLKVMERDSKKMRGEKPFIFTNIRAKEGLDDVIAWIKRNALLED
Procedure: To further confirm the interface between UreG and small molecules generated from computational models, we then constructed an UreG mutant (UreGΔNKXD) by replacing selected residues (N145, K146, D148) with Ala to disrupt G4 motif, which abolished GTP binding of UreG (S17 Fig).
(§1) Using the relation between the emission intensity at 310 nm and molecule-UreG–bound species, as well as one site-binding model, the Kd values were calculated by a logistic regression model referring to a previous report. […] All fluorescence readings were corrected for the dilution effect.

UreG [1] = biological target: T1, UreG (Helicobacter pylori, UniProt Q09066); assay: Fluorescence-quenching titration of UreG (Kd); assay type: binding, H. pylori
T1 sequence (Q09066 whole entry): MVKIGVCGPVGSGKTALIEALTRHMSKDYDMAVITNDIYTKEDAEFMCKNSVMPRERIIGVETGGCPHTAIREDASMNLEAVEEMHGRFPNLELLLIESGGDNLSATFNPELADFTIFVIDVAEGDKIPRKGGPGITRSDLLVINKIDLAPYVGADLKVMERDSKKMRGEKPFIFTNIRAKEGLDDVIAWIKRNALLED
Procedure: as §1

UreG [2] = biological target: T1, UreG; assay: biochemical; assay type: biochemical, H. pylori
Procedure: A Malachite Green Phosphate Assay Kit (Abcam) was utilized to quantify the hydrolysis of GTP by UreG under various conditions. […] GTPase activity of UreG was triggered through the addition of 10 mM KHCO3, after which the reaction was incubated at 37°C for 30 min; then, the free phosphate from hydrolysis of GTP was determined. […] To eliminate the potential effect of small compounds on malachite green assay, the assay included a subtraction of the absorbance of reaction with the same amounts of compounds but without UreG enzyme for each reading.

[3] = test system: AGS cells with H. pylori infection; assay: AGS cells with H. pylori infection, inhibitors administrated to the AGS cells (S20 Fig); assay type: cell-based, human; details: 10 μM administrated to AGS cells with H. pylori infection
From the text: As expected, low viability of AGS with the supplement of cmpd4 and cmpd8 was observed due to the toxicity of small compounds to mammalian cells. […] (PNG) Click here for additional data file.

UreG [4] = biological target: T1, UreG; assay: Nickel binding of UreG (UV absorption at 337 nm) in presence of compounds; set-up: species or system H. pylori; details: for percentage of Ni(II)-bound UreG: UreG 5 μM
Procedure: We further investigated whether binding of cmpd4 or cmpd8 to the guanine nucleotide binding pocket perturbed the Ni(II) coordination to the protein. Considering that coordination of Ni(II) to UreG results in a (Cys)→Ni(II) LMCT band centered at about 337 nm, we monitored the UV absorption of UreG samples (5 μM) at 337 nm upon titration of nickel with or without the supplement of cmpd4 or cmpd8. As shown in S19 Fig, cmpd4 at a ratio of [cmpd4]/[UreG] of 5 and 10 reduced the percentages of Ni(II)-bound UreG to ca. 75% and 30%, respectively, and a similar phenomenon was also observed for cmpd8 (S19 Fig), indicative of the disruption of nickel binding property of UreG through targeting nucleotide binding site.
Supplementary file pbio.2003887.s021.png: S19 Fig Effect of cmpd4 and cmpd8 on nickel binding property of UreG. UreG (5 μM) in HEPES buffer (5 μM GTP, 1 mM MgSO4) was titrated with NiSO4 in the presence of cmpd4 or cmpd8 at various concentrations. Titration of nickel ion into UreG samples led to the increasing of absorption at 337 nm, the highest of which was set as 100% for the percentage of Ni-bound UreG. The supplement of cmpd4 and cmpd8 reduced the percentage of Ni-bound UreG. […] (PNG) Click here for additional data file.

[5] = test system: AGS cells exposed to H. pylori; assay: Cell infection model: AGS cells exposed to H. pylori pre-cultured with inhibitors; assay type: cell-based, human; details: for Normalized cell survival (%): H. pylori pre-cultured with 10 μM inhibitor 24 h, MOI 20, 24 h infection, Hp alone 28.8%

SMILES: Cc1cccc(N2CCN(C(=O)c3cc(S(=O)(=O)N(C)C)ccc3N3CCCC3)CC2)c1C [cmpd4]
- OD600(pH5) (H. pylori): 0.46
- OD600(pH5) (H. pylori; listed as cmp4): 0.464
- OD600 (pH7) (H. pylori; neutral medium, 24 h, control 0.18): 0.141
- inhibition at 20 µM (H. pylori urease): ~60%
- Kd (UreGΔNKXD): 34.7 µM
- fluorescence intensity (a.u.) (UreGΔNKXD; log(ligand[μM]) 0): 2206 a.u.
- fluorescence intensity (a.u.) (UreGΔNKXD; log(ligand[μM]) 0.30103): 2092 a.u.
- fluorescence intensity (a.u.) (UreGΔNKXD; log(ligand[μM]) 0.60206): 1907 a.u.
- fluorescence intensity (a.u.) (UreGΔNKXD; log(ligand[μM]) 0.90309): 1710.67 a.u.
- fluorescence intensity (a.u.) (UreGΔNKXD; log(ligand[μM]) 1.20412): 1454.33 a.u.
- fluorescence intensity (a.u.) (UreGΔNKXD; log(ligand[μM]) 1.50515): 989.433 a.u.
- fluorescence intensity (a.u.) (UreGΔNKXD; log(ligand[μM]) 1.80618): 540.3 a.u.
- fluorescence intensity (a.u.) (UreGΔNKXD; log(ligand[μM]) 2.10721): 237.1 a.u.
- fluorescence intensity (a.u.) (UreGΔNKXD; log(ligand[μM]) -0.30103): 2278 a.u.
- fluorescence intensity (a.u.) (UreGΔNKXD; log(ligand[μM]) -1.30103): 2063.67 a.u.
- Kd (UreG [1]): 10.6 ± 2.3 µM
- fluorescence intensity (a.u.) (UreG [1]; log(ligand[μM]) 0): 2682 a.u.
- fluorescence intensity (a.u.) (UreG [1]; log(ligand[μM]) 0.30103): 2455.33 a.u.
- fluorescence intensity (a.u.) (UreG [1]; log(ligand[μM]) 0.60206): 2056.33 a.u.
- fluorescence intensity (a.u.) (UreG [1]; log(ligand[μM]) 0.90309): 1714.67 a.u.
- fluorescence intensity (a.u.) (UreG [1]; log(ligand[μM]) 1.20412): 1176.67 a.u.
- fluorescence intensity (a.u.) (UreG [1]; log(ligand[μM]) 1.50515): 615.233 a.u.
- fluorescence intensity (a.u.) (UreG [1]; log(ligand[μM]) 1.80618): 297.433 a.u.
- fluorescence intensity (a.u.) (UreG [1]; log(ligand[μM]) -0.30103): 2867.67 a.u.
- fluorescence intensity (a.u.) (UreG [1]; log(ligand[μM]) -0.60206): 2962.67 a.u.
- fluorescence intensity (a.u.) (UreG [1]; log(ligand[μM]) -1.30103): 3018 a.u.
- IC50 (UreG [2]): 16.8 ± 6.5 µM
- Normalized GTPase activity(%) (UreG [2]; log[μM] 0): 97.2%
- Normalized GTPase activity(%) (UreG [2]; log[μM] 0.60206): 90.0%
- Normalized GTPase activity(%) (UreG [2]; log[μM] 0.90309): 69.0%
- Normalized GTPase activity(%) (UreG [2]; log[μM] 1.20412): 56.9%
- Normalized GTPase activity(%) (UreG [2]; log[μM] 1.50515): 41.1%
- Normalized GTPase activity(%) (UreG [2]; log[μM] 1.79588): 28.1%
- Normalized GTPase activity(%) (UreG [2]; log[μM] 2.09691): 11.6%
- Normalized GTPase activity(%) (UreG [2]; log[μM] 2.39794): 16.3%
- Normalized GTPase activity(%) (UreG [2]; purified Ni-UreG (5 µM), 20 µM small compound): 43.9%
- inhibition at 20 µM (UreG [2]; read-out: inhibition of the GTPase activity of UreG): 37 to 72%
- Ammonia in medium [3]: 0.3373 mM
- Normalized cell survival (%) [3]: low viability
- Normalized cell survival (%) ([3]; listed as cmp4): 22.5225%
- percentage of Ni(II)-bound UreG (UreG [4]; [cmpd4]/[UreG] of 5): ca. 75%
- percentage of Ni(II)-bound UreG (UreG [4]; [cmpd4]/[UreG] of 10): ~30%
- absorption at 337 nm (UreG [4]; [compound]/[UreG] 5, Ni 0 μM): 5.14E-05
- absorption at 337 nm (UreG [4]; [compound]/[UreG] 5, Ni 1 μM): 0.00539
- absorption at 337 nm (UreG [4]; [compound]/[UreG] 5, Ni 2 μM): 0.00942
- absorption at 337 nm (UreG [4]; [compound]/[UreG] 5, Ni 3 μM): 0.01515
- absorption at 337 nm (UreG [4]; [compound]/[UreG] 5, Ni 4 μM): 0.01614
- absorption at 337 nm (UreG [4]; [compound]/[UreG] 5, Ni 5 μM): 0.01885
- absorption at 337 nm (UreG [4]; [compound]/[UreG] 5, Ni 6 μM): 0.02176
- absorption at 337 nm (UreG [4]; [compound]/[UreG] 5, Ni 7 μM): 0.02335
- absorption at 337 nm (UreG [4]; [compound]/[UreG] 5, Ni 8 μM): 0.02298
- absorption at 337 nm (UreG [4]; [compound]/[UreG] 10, Ni 0 μM): -8.22E-04
- absorption at 337 nm (UreG [4]; [compound]/[UreG] 10, Ni 1 μM): 0.00376
- absorption at 337 nm (UreG [4]; [compound]/[UreG] 10, Ni 2 μM): 0.00766
- absorption at 337 nm (UreG [4]; [compound]/[UreG] 10, Ni 3 μM): 0.00856
- absorption at 337 nm (UreG [4]; [compound]/[UreG] 10, Ni 4 μM): 0.00995
- absorption at 337 nm (UreG [4]; [compound]/[UreG] 10, Ni 5 μM): 0.01042
- absorption at 337 nm (UreG [4]; [compound]/[UreG] 10, Ni 6 μM): 0.01062
- absorption at 337 nm (UreG [4]; [compound]/[UreG] 10, Ni 7 μM): 0.01073
- absorption at 337 nm (UreG [4]; [compound]/[UreG] 10, Ni 8 μM): 0.00864
- Normalized cell survival (%) [5]: 70.3% ± 11.3%
- Normalized cell survival (%) ([5]; listed as cmp4): 70.2703%
- Ammonia in medium (mM) ([5]; H. pylori pre-cultured with 10 μM inhibitor, urea 10 mM, 24 h, Hp alone ca. 2.5 mM): around 1.1 mM
- Ammonia in medium ([5]; H. pylori pre-cultured with 10 μM inhibitor, urea 10 mM, 24 h, Hp alone ca. 2.5 mM, listed as cmp4): 1.1872 mM
